Results published in ChEMBL document CHEMBL1156699, “C-terminal constrained phenylalanine as a pharmacophoric unit in peptide-based proteasome inhibitors” (Eur J Med Chem, 2008).
Residues, ends and D or L forms follow the SMILES beside them. *: point of attachment. Cbz = O=C(OCc1ccccc1)*

Experiment: In vivo inhibition of chymotrypsin like 20S proteasome
Type: organism-based

Compound	IC50 [µM]
CCOC(=O)/C=C/[C@H](CC(C)C)NC(=O)[C@H](CO)NC(=O)[C@@H](NC(=O)c1cccc(O)c1C)C(C)C	> 10
CCOC(=O)/C(=C/c1ccccc1)NC(=O)[C@H](CC(C)C)NC(=O)[C@H](CO)NC(=O)[C@@H](NC(=O)c1cccc(O)c1C)C(C)C	> 10
CCOC(=O)/C(=C/c1ccccc1)NC(=O)[C@H](CC(C)C)NC(=O)[C@H](CC(C)C)NC(=O)c1cccc(O)c1C	1.55
CCOC(=O)/C(=C/c1ccccc1)NC(=O)[C@H](CC(C)C)NC(=O)[C@H](CC(C)C)NC(=O)[C@H](CC(C)C)NC(=O)c1cccc(O)c1C	1.04
CCOC(=O)/C(=C/c1ccccc1)NC(=O)[C@H](CO)NC(=O)[C@@H](NC(=O)c1cccc(O)c1C)C(C)C	> 10

Experiment: Inhibition of caspase like 20S proteasome activity in lymphoblastoid cells
Type: cell-based

Compound	IC50 [µM]
CCOC(=O)/C=C/[C@H]1Cc2ccccc2CN1C(=O)[C@H](CC(C)C)NC(=O)[C@H](CC(C)C)NC(=O)c1cccc(O)c1C	1.48
CCOC(=O)/C=C/[C@H](CC(C)C)NC(=O)[C@H](CO)NC(=O)[C@@H](NC(=O)c1cccc(O)c1C)C(C)C	> 10
CCOC(=O)/C(=C/c1ccccc1)NC(=O)[C@H](CC(C)C)NC(=O)[C@H](CO)NC(=O)[C@@H](NC(=O)c1cccc(O)c1C)C(C)C	> 10
CCOC(=O)/C=C/[C@H]1Cc2ccccc2CN1C(=O)[C@H](CO)NC(=O)[C@@H](NC(=O)c1cccc(O)c1C)C(C)C	2.96
CC(C)C[C@@H](C=O)NC(=O)[C@H](CC(C)C)NC(=O)[C@H](CC(C)C)NC(=O)OCc1ccccc1 [MG-132] (Cbz-Leu-Leu-Leu-aldehyde)	> 10
CCOC(=O)/C(=C/c1ccccc1)NC(=O)[C@H](CC(C)C)NC(=O)[C@H](CC(C)C)NC(=O)c1cccc(O)c1C	> 10
CCOC(=O)/C=C/[C@@H]1Cc2ccccc2CN1C(=O)[C@H](CC(C)C)NC(=O)[C@H](CC(C)C)NC(=O)[C@H](CC(C)C)NC(=O)c1cccc(O)c1C	1.73
CCOC(=O)/C=C/[C@@H]1Cc2ccccc2CN1C(=O)[C@H](CO)NC(=O)[C@@H](NC(=O)c1cccc(O)c1C)C(C)C	3.92
CCOC(=O)/C=C/[C@H]1Cc2ccccc2CN1C(=O)[C@H](CC(C)C)NC(=O)[C@H](CO)NC(=O)[C@@H](NC(=O)c1cccc(O)c1C)C(C)C	2.35
CCOC(=O)/C=C/[C@@H]1Cc2ccccc2CN1C(=O)[C@H](CC(C)C)NC(=O)[C@H](CC(C)C)NC(=O)c1cccc(O)c1C	2.14
CCOC(=O)/C(=C/c1ccccc1)NC(=O)[C@H](CC(C)C)NC(=O)[C@H](CC(C)C)NC(=O)[C@H](CC(C)C)NC(=O)c1cccc(O)c1C	> 10
CCOC(=O)/C=C/[C@@H]1Cc2ccccc2CN1C(=O)[C@H](CC(C)C)NC(=O)[C@H](CO)NC(=O)[C@@H](NC(=O)c1cccc(O)c1C)C(C)C	2.5
CCOC(=O)/C=C/[C@H]1Cc2ccccc2CN1C(=O)[C@H](CC(C)C)NC(=O)[C@H](CC(C)C)NC(=O)[C@H](CC(C)C)NC(=O)c1cccc(O)c1C	0.952
CCOC(=O)/C(=C/c1ccccc1)NC(=O)[C@H](CO)NC(=O)[C@@H](NC(=O)c1cccc(O)c1C)C(C)C	> 10

Experiment: In vivo inhibition of trypsin like 20S proteasome
Type: organism-based

Compound	IC50 [µM]
CCOC(=O)/C=C/[C@H](CC(C)C)NC(=O)[C@H](CO)NC(=O)[C@@H](NC(=O)c1cccc(O)c1C)C(C)C	0.05
CCOC(=O)/C(=C/c1ccccc1)NC(=O)[C@H](CC(C)C)NC(=O)[C@H](CO)NC(=O)[C@@H](NC(=O)c1cccc(O)c1C)C(C)C	0.092
CCOC(=O)/C(=C/c1ccccc1)NC(=O)[C@H](CC(C)C)NC(=O)[C@H](CC(C)C)NC(=O)c1cccc(O)c1C	2.18
CCOC(=O)/C(=C/c1ccccc1)NC(=O)[C@H](CC(C)C)NC(=O)[C@H](CC(C)C)NC(=O)[C@H](CC(C)C)NC(=O)c1cccc(O)c1C	1.81
CCOC(=O)/C(=C/c1ccccc1)NC(=O)[C@H](CO)NC(=O)[C@@H](NC(=O)c1cccc(O)c1C)C(C)C	0.231

Experiment: Half life in human plasma after 360 mins
Type: ADME, cell-free

Compound	half-life [h]
CCOC(=O)/C=C/[C@H]1Cc2ccccc2CN1C(=O)[C@H](CC(C)C)NC(=O)[C@H](CC(C)C)NC(=O)c1cccc(O)c1C	> 6
CCOC(=O)/C=C/[C@H](CC(C)C)NC(=O)[C@H](CO)NC(=O)[C@@H](NC(=O)c1cccc(O)c1C)C(C)C	> 6
CCOC(=O)/C(=C/c1ccccc1)NC(=O)[C@H](CC(C)C)NC(=O)[C@H](CO)NC(=O)[C@@H](NC(=O)c1cccc(O)c1C)C(C)C	> 6
CCOC(=O)/C(=C/c1ccccc1)NC(=O)[C@H](CC(C)C)NC(=O)[C@H](CC(C)C)NC(=O)c1cccc(O)c1C	> 6
CCOC(=O)/C(=C/c1ccccc1)NC(=O)[C@H](CC(C)C)NC(=O)[C@H](CC(C)C)NC(=O)[C@H](CC(C)C)NC(=O)c1cccc(O)c1C	> 6
CCOC(=O)/C=C/[C@H]1Cc2ccccc2CN1C(=O)[C@H](CC(C)C)NC(=O)[C@H](CC(C)C)NC(=O)[C@H](CC(C)C)NC(=O)c1cccc(O)c1C	> 6
CCOC(=O)/C(=C/c1ccccc1)NC(=O)[C@H](CO)NC(=O)[C@@H](NC(=O)c1cccc(O)c1C)C(C)C	> 6

Experiment: In vivo inhibition of caspase like 20S proteasome
Type: organism-based

Compound	IC50 [µM]
CCOC(=O)/C=C/[C@H]1Cc2ccccc2CN1C(=O)[C@H](CC(C)C)NC(=O)[C@H](CC(C)C)NC(=O)c1cccc(O)c1C	2.05
CCOC(=O)/C=C/[C@H](CC(C)C)NC(=O)[C@H](CO)NC(=O)[C@@H](NC(=O)c1cccc(O)c1C)C(C)C	> 10
CCOC(=O)/C(=C/c1ccccc1)NC(=O)[C@H](CC(C)C)NC(=O)[C@H](CO)NC(=O)[C@@H](NC(=O)c1cccc(O)c1C)C(C)C	> 10
CCOC(=O)/C(=C/c1ccccc1)NC(=O)[C@H](CC(C)C)NC(=O)[C@H](CC(C)C)NC(=O)c1cccc(O)c1C	> 10
CCOC(=O)/C(=C/c1ccccc1)NC(=O)[C@H](CC(C)C)NC(=O)[C@H](CC(C)C)NC(=O)[C@H](CC(C)C)NC(=O)c1cccc(O)c1C	> 10
CCOC(=O)/C=C/[C@H]1Cc2ccccc2CN1C(=O)[C@H](CC(C)C)NC(=O)[C@H](CC(C)C)NC(=O)[C@H](CC(C)C)NC(=O)c1cccc(O)c1C	1.41
CCOC(=O)/C(=C/c1ccccc1)NC(=O)[C@H](CO)NC(=O)[C@@H](NC(=O)c1cccc(O)c1C)C(C)C	> 10

Experiment: Inhibition of trypsin like 20S proteasome activity in lymphoblastoid cells
Type: cell-based

Compound	IC50 [µM]
CCOC(=O)/C=C/[C@H]1Cc2ccccc2CN1C(=O)[C@H](CC(C)C)NC(=O)[C@H](CC(C)C)NC(=O)c1cccc(O)c1C	> 10
CCOC(=O)/C=C/[C@H](CC(C)C)NC(=O)[C@H](CO)NC(=O)[C@@H](NC(=O)c1cccc(O)c1C)C(C)C	0.033
CCOC(=O)/C(=C/c1ccccc1)NC(=O)[C@H](CC(C)C)NC(=O)[C@H](CO)NC(=O)[C@@H](NC(=O)c1cccc(O)c1C)C(C)C	0.079
CCOC(=O)/C=C/[C@H]1Cc2ccccc2CN1C(=O)[C@H](CO)NC(=O)[C@@H](NC(=O)c1cccc(O)c1C)C(C)C	3.67
CC(C)C[C@@H](C=O)NC(=O)[C@H](CC(C)C)NC(=O)[C@H](CC(C)C)NC(=O)OCc1ccccc1 [MG-132] (Cbz-Leu-Leu-Leu-aldehyde)	1.08
CCOC(=O)/C(=C/c1ccccc1)NC(=O)[C@H](CC(C)C)NC(=O)[C@H](CC(C)C)NC(=O)c1cccc(O)c1C	1.76
CCOC(=O)/C=C/[C@@H]1Cc2ccccc2CN1C(=O)[C@H](CC(C)C)NC(=O)[C@H](CC(C)C)NC(=O)[C@H](CC(C)C)NC(=O)c1cccc(O)c1C	> 10
CCOC(=O)/C=C/[C@@H]1Cc2ccccc2CN1C(=O)[C@H](CO)NC(=O)[C@@H](NC(=O)c1cccc(O)c1C)C(C)C	2.79
CCOC(=O)/C=C/[C@H]1Cc2ccccc2CN1C(=O)[C@H](CC(C)C)NC(=O)[C@H](CO)NC(=O)[C@@H](NC(=O)c1cccc(O)c1C)C(C)C	7.95
CCOC(=O)/C=C/[C@@H]1Cc2ccccc2CN1C(=O)[C@H](CC(C)C)NC(=O)[C@H](CC(C)C)NC(=O)c1cccc(O)c1C	5.84
CCOC(=O)/C(=C/c1ccccc1)NC(=O)[C@H](CC(C)C)NC(=O)[C@H](CC(C)C)NC(=O)[C@H](CC(C)C)NC(=O)c1cccc(O)c1C	1.31
CCOC(=O)/C=C/[C@@H]1Cc2ccccc2CN1C(=O)[C@H](CC(C)C)NC(=O)[C@H](CO)NC(=O)[C@@H](NC(=O)c1cccc(O)c1C)C(C)C	> 10
CCOC(=O)/C=C/[C@H]1Cc2ccccc2CN1C(=O)[C@H](CC(C)C)NC(=O)[C@H](CC(C)C)NC(=O)[C@H](CC(C)C)NC(=O)c1cccc(O)c1C	> 10
CCOC(=O)/C(=C/c1ccccc1)NC(=O)[C@H](CO)NC(=O)[C@@H](NC(=O)c1cccc(O)c1C)C(C)C	0.183

Experiment: Inhibition of chymotrypsin like 20S proteasome activity in lymphoblastoid cells
Type: cell-based

Compound	IC50 [µM]
CCOC(=O)/C=C/[C@H]1Cc2ccccc2CN1C(=O)[C@H](CC(C)C)NC(=O)[C@H](CC(C)C)NC(=O)c1cccc(O)c1C	3.73
CCOC(=O)/C=C/[C@H](CC(C)C)NC(=O)[C@H](CO)NC(=O)[C@@H](NC(=O)c1cccc(O)c1C)C(C)C	> 10
CCOC(=O)/C(=C/c1ccccc1)NC(=O)[C@H](CC(C)C)NC(=O)[C@H](CO)NC(=O)[C@@H](NC(=O)c1cccc(O)c1C)C(C)C	> 10
CCOC(=O)/C=C/[C@H]1Cc2ccccc2CN1C(=O)[C@H](CO)NC(=O)[C@@H](NC(=O)c1cccc(O)c1C)C(C)C	> 10
CC(C)C[C@@H](C=O)NC(=O)[C@H](CC(C)C)NC(=O)[C@H](CC(C)C)NC(=O)OCc1ccccc1 [MG-132] (Cbz-Leu-Leu-Leu-aldehyde)	0.002
CCOC(=O)/C(=C/c1ccccc1)NC(=O)[C@H](CC(C)C)NC(=O)[C@H](CC(C)C)NC(=O)c1cccc(O)c1C	1.19
CCOC(=O)/C=C/[C@@H]1Cc2ccccc2CN1C(=O)[C@H](CC(C)C)NC(=O)[C@H](CC(C)C)NC(=O)[C@H](CC(C)C)NC(=O)c1cccc(O)c1C	5.29
CCOC(=O)/C=C/[C@@H]1Cc2ccccc2CN1C(=O)[C@H](CO)NC(=O)[C@@H](NC(=O)c1cccc(O)c1C)C(C)C	> 10
CC[C@H](C)[C@H](NC(=O)[C@H]([C@@H](C)CC)N(C)C(C)=O)C(=O)N[C@H](C(=O)N[C@@H](CC(C)C)C(=O)[C@@]1(C)CO1)[C@@H](C)O [EPOXOMYCIN]	0.005
CCOC(=O)/C=C/[C@H]1Cc2ccccc2CN1C(=O)[C@H](CC(C)C)NC(=O)[C@H](CO)NC(=O)[C@@H](NC(=O)c1cccc(O)c1C)C(C)C	> 10
CCOC(=O)/C=C/[C@@H]1Cc2ccccc2CN1C(=O)[C@H](CC(C)C)NC(=O)[C@H](CC(C)C)NC(=O)c1cccc(O)c1C	2.06
CCOC(=O)/C(=C/c1ccccc1)NC(=O)[C@H](CC(C)C)NC(=O)[C@H](CC(C)C)NC(=O)[C@H](CC(C)C)NC(=O)c1cccc(O)c1C	0.894
CCOC(=O)/C=C/[C@@H]1Cc2ccccc2CN1C(=O)[C@H](CC(C)C)NC(=O)[C@H](CO)NC(=O)[C@@H](NC(=O)c1cccc(O)c1C)C(C)C	> 10
CCOC(=O)/C=C/[C@H]1Cc2ccccc2CN1C(=O)[C@H](CC(C)C)NC(=O)[C@H](CC(C)C)NC(=O)[C@H](CC(C)C)NC(=O)c1cccc(O)c1C	8.45
CCOC(=O)/C(=C/c1ccccc1)NC(=O)[C@H](CO)NC(=O)[C@@H](NC(=O)c1cccc(O)c1C)C(C)C	> 10
